Reference: patent US8796328B2, “TRPV1 antagonists” (AbbVie Inc., priority 2012, dated 2014)

Experiments:
[1] = molecular target: T1, human TRPV1 receptor (hTRPV1) (Homo sapiens (Human), UniProt Q8NER1); assay: Acid activation assay (pH 5.0, FLIPR intracellular Ca2+); type: cell-based; settings: 37.5 μM compound; percentage of the maximal pH 5.0-induced response remaining; read-out: hTRPV1 H+ (max % remain)
Experimental: Dulbecco's modified Eagle's medium (DMEM) with 4.5 mg/mL D-glucose, fetal bovine serum, L-glutamine, and 2-morpholinoethanesulfonic acid (MES) were purchased from Sigma-Aldrich Co. (St. Louis, Mo.). Dulbecco's phosphate-buffered saline (DPBS) with Ca^2+, Mg^2+, and 1 mg/mL D-glucose (pH 7.4), Geneticin®, 0.25% trypsin-1 mM EDTA, and penicillin-streptomycin were purchased from Invitrogen Corp. (Carlsbad, Calif.). The FLIPR® Calcium 4 assay kit was purchased from Molecular Devices (Sunnyvale, Calif.).
(§1) The cDNAs for the human TRPV1 receptor (hTRPV1) were isolated by reverse transcriptase-polymerase chain reaction (RT-PCR) from human small intestine poly A+ RNA supplied by Clontech (Palo Alto, Calif.) using primers designed surrounding the initiation and termination codons identical to the published sequences (Hayes et al. Pain 2000, 88, 205-215). The resulting cDNA PCR products were subcloned into pCIneo mammalian expression vector (Promega) and fully sequenced using fluorescent dye-terminator reagents (Prism, Perkin-Elmer Applied Biosystems Division) and a Perkin-Elmer Applied Biosystems Model 373 DNA sequencer or Model 310 genetic analyzer. Expression plasmids encoding the hTRPV1 cDNA were transfected individually into 1321N1 human astrocytoma cells using Lipofectamine®. Forty-eight hours after transfection, the neomycin-resistant cells were selected with growth medium containing 800 μg/mL Geneticin (Gibco BRL). Surviving individual colonies were isolated and screened for TRPV1 receptor activity. Cells expressing recombinant homomeric TRPV1 receptors were maintained at 37° C. in DMEM containing 4 mM L-glutamine, 300 μg/mL G418 (Cal-biochem) and 10% fetal bovine serum under a humidified 5% CO2 atmosphere.
The functional activity of compounds at the TRPV1 receptor was determined by measurement of intracellular Ca^2+ levels ([Ca^2+]i) using the Fluorescence Imaging Plate Reader (FLIPR)^TETRA®. All compounds were tested over a 12-point one-half-log concentration range. Compound stocks, 10 mM, were prepared in DMSO, and diluted serially across a 384-well plate using a Bravo BenchCel workstation (Agilent Technologies, Santa Clara, Calif.).
On the day of the experiment growth medium was removed, and the no-wash FLIPR®Calcium-4 dye (λEX=470-495 nm, λEM=515-575 nm) was added to each well using the Multidrop® dispenser. Cells were incubated for 90-120 minutes in the dark at 25° C. Test compounds were dissolved in DMSO, and plates were prepared using an Agilent Bravo workstation (Agilent Technologies Inc., Santa Clara, Calif.). Compounds were added to the cells 3 minutes prior to the addition of a pH 5.0 solution. Reagents were delivered at a rate of 40 μL/sec, and the final assay volume was 80 μL. Acidic pH solutions were prepared by titration of DPBS/MES with 1 N HCl. The intensity of the fluorescence was captured and digitally transferred to an interfaced PC.

[2] = molecular target: T1, human TRPV1 receptor (hTRPV1); assay: Capsaicin activation assay (FLIPR intracellular Ca2+); type: cell-based; settings: inhibition of capsaicin-induced intracellular Ca2+ increase; compounds added 3 minutes prior to capsaicin; read-out: hTRPV1 cap. IC50
Experimental: Dulbecco's modified Eagle medium (D-MEM) (with 4.5 mg/mL glucose) and fetal bovine serum were obtained from Hyclone Laboratories, Inc. (Logan, Utah). Dulbecco's phosphate-buffered saline (D-PBS) (with 1 mg/mL glucose and 3.6 mg/l Na pyruvate, without phenol red), L-glutamine, hygromycin B, and Lipofectamine® were obtained from Life Technologies (Grand Island, N.Y.). G418 sulfate was obtained from Calbiochem-Novabiochem Corp. (San Diego, Calif.). Capsaicin (8-methyl-N-vanillyl-6-nonenamide) was obtained from Sigma-Aldrich, Co. (St. Louis, Mo.). Fluo-4 AM (N-[4-[6-[(acetyloxy)methoxy]-2,7-difluoro-3-oxo-3H-xanthen-9-yl]-2-[2-[2-[bis[2-[(acetyloxy)methoxy]-2-oxyethyl]amino]-5-methylphenoxy]ethoxy]phenyl]-N-[2-[(acetyloxy)methoxy]-2-oxyethyl]-glycine, (acetyloxy)methyl ester) was purchased from Molecular Probes (Eugene, Oreg.).
as §1, with “D-MEM” for “DMEM”
The functional activity of compounds at the TRPV1 receptor was determined by measurement of intracellular Ca^2+ levels ([Ca^2]i) using the Fluorescence Imaging Plate Reader (FLIPR)^TETRA®. All compounds were tested over a 12-point one-third-log concentration range. Compound stocks, 10 mM, were prepared in DMSO, and diluted serially across a 384-well plate using a Bravo BenchCel workstation (Agilent Technologies, Santa Clara, Calif.). A stock concentration of capsaicin (10 mM) was made in DMSO, and diluted in D-PBS to a final concentration of 200 nM (4×). On the day prior to the experiment, recombinant HEK293 cells that stably express either human or rat TRPV1 (hTRPV1-3) were removed from tissue culture flasks and plated in growth medium into black-walled clear-bottom 384-well Biocoat™ poly-D-lysine assay plates (BD Biosciences, Bedford, Mass.) using a Multidrop® dispenser (ThermoScientific, Waltham, Mass.). On the day of the experiment, growth medium was removed, and the no-wash FLIPR® Calcium-4 dye (λEX=470-495 nm, λEM=515-575 nm; Molecular Devices, Sunnyvale, Calif.) was added to each well using the Multidrop® dispenser. Cells were incubated for 90-120 minutes in the dark at room temperature. Test compounds were added to the cells 3 minutes prior to the addition of 200 nM capsaicin (4×), and the final assay volume was 80 μL. Fluorescence readings were made at 1 to 5 second intervals over the course of the experimental run. The peak increase in relative fluorescence units (minus baseline) was calculated, and expressed as a percentage of the 50 nM capsaicin (control) response. Curve-fits of the data were solved using a four-parameter logistic Hill equation in GraphPad Prism® (GraphPad Software, Inc., San Diego, Calif.), and IC50 values (concentration of the test compounds that inhibits 50% of the intracellular Ca^2+ concentration increase induced by capasin) were calculated.

T1 sequence (Q8NER1 whole entry): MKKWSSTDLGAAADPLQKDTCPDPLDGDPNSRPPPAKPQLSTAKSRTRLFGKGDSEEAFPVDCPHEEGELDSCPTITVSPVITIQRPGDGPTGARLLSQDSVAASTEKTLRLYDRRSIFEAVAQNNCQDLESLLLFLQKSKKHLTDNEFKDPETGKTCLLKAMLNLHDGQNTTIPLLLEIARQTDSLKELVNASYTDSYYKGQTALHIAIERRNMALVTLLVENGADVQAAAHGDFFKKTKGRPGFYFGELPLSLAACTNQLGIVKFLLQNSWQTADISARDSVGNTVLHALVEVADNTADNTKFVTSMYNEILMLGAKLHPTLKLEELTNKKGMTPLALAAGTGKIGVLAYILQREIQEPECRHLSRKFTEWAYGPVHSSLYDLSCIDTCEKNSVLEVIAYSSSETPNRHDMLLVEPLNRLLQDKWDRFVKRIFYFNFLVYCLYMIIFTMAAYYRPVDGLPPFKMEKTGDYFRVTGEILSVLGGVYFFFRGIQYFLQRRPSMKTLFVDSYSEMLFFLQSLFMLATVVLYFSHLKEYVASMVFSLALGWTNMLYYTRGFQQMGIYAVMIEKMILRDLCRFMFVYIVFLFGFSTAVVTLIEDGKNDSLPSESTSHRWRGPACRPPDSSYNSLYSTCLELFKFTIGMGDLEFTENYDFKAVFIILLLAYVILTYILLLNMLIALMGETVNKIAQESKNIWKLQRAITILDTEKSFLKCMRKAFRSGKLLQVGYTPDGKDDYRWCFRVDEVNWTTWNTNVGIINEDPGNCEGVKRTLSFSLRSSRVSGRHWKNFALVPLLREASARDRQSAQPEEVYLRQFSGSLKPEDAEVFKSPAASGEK

remaining activity at 37.5 µM [1]	IC50 [2]	SMILES
22%	104 nM	CC(C)(C)c1ccc2c(c1)CC[C@H]2NC(=O)NCc1ccc(NS(C)(=O)=O)c(F)c1 [Example 1, N-{4-[({[(1R)-5-tert-butyl-2,3-dihydro-1H-inden-1-yl]carbamoyl}amino)methyl]-2-fluorophenyl}methanesulfonamide]
86%	1810 nM	CS(=O)(=O)Nc1ccc(CNC(=O)N[C@@H]2CCc3cc(Cl)ccc32)cc1F [Example 3, N-{4-[({[(1R)-5-chloro-2,3-dihydro-1H-inden-1-yl]carbamoyl}amino)methyl]-2-fluorophenyl}methanesulfonamide]
91%	16500 nM	CS(=O)(=O)Nc1ccc(CNC(=O)N[C@@H]2CCc3cc(F)ccc32)cc1F [Example 4, N-{2-fluoro-4-[({[(1R)-5-fluoro-2,3-dihydro-1H-inden-1-yl]carbamoyl}amino)methyl]phenyl}methanesulfonamide]
88%	325 nM	CS(=O)(=O)Nc1ccc(CNC(=O)N[C@@H]2CCc3cc(C(F)(F)F)ccc32)cc1F [Example 5, N-{2-fluoro-4-[({[(1R)-5-(trifluoromethyl)-2,3-dihydro-1H-inden-1-yl]carbamoyl}amino)methyl]phenyl}methanesulfonamide]
73%	2900 nM	CS(=O)(=O)Nc1ccc(CNC(=O)N[C@@H]2CC(CF)(CF)Oc3cc(Cl)ccc32)cc1F [Example 6, N-{4-[({[(4R)-7-chloro-2,2-bis(fluoromethyl)-3,4-dihydro-2H-chromen-4-yl]carbamoyl}amino)methyl]-2-fluorophenyl}methanesulfonamide]
18%	747 nM	CC1(C)C[C@@H](NC(=O)NCc2ccc(NS(C)(=O)=O)c(F)c2)c2ccc(F)cc2O1 [Example 7, N-{2-fluoro-4-[({[(4R)-7-fluoro-2,2-dimethyl-3,4-dihydro-2H-chromen-4-yl]carbamoyl}amino)methyl]phenyl}methanesulfonamide]
24%	330 nM	CCC1(CC)C[C@@H](NC(=O)NCc2ccc(NS(C)(=O)=O)c(F)c2)c2ccc(Cl)c(Cl)c2O1 [Example 8, N-{4-[({[(4R)-7,8-dichloro-2,2-diethyl-3,4-dihydro-2H-chromen-4-yl]carbamoyl}amino)methyl]-2-fluorophenyl}methanesulfonamide]
70%	109 nM	CC1(C)C[C@@H](NC(=O)NCc2ccc(NS(C)(=O)=O)c(F)c2)c2ccc(C(F)(F)F)cc2O1 [Example 9, N-{4-[({[(4R)-2,2-dimethyl-7-(trifluoromethyl)-3,4-dihydro-2H-chromen-4-yl]carbamoyl}amino)methyl]-2-fluorophenyl}methanesulfonamide]
87%	> 37500 nM	CS(=O)(=O)Nc1ccc(CNC(=O)N[C@@H]2CCOc3ccccc32)cc1F [Example 12, N-[4-({[(4R)-3,4-dihydro-2H-chromen-4-ylcarbamoyl]amino}methyl)-2-fluorophenyl]methanesulfonamide]
27%	418 nM	CCC1(CC)C[C@@H](NC(=O)NCc2ccc(NS(C)(=O)=O)c(F)c2)c2cccc(F)c2O1 [Example 13, N-{4-[({[(4R)-2,2-diethyl-8-fluoro-3,4-dihydro-2H-chromen-4-yl]carbamoyl}amino)methyl]-2-fluorophenyl}methanesulfonamide]
27%	209 nM	CCC1(CC)C[C@@H](NC(=O)NCc2ccc(NS(C)(=O)=O)c(F)c2)c2ccc(Cl)cc2O1 [Example 14, N-{4-[({[(4R)-7-chloro-2,2-diethyl-3,4-dihydro-2H-chromen-4-yl]carbamoyl}amino)methyl]-2-fluorophenyl}methanesulfonamide]
85%	863 nM	CS(=O)(=O)Nc1ccc(CNC(=O)N[C@@H]2CC(CF)(CF)Oc3cc(OC(F)(F)F)ccc32)cc1F [Example 15, N-{4-[({[(4R)-2,2-bis(fluoromethyl)-7-(trifluoromethoxy)-3,4-dihydro-2H-chromen-4-yl]carbamoyl}amino)methyl]-2-fluorophenyl}methanesulfonamide]
79%	22800 nM	CS(=O)(=O)Nc1ccc(CNC(=O)N[C@@H]2CC(CF)(CF)Oc3c(F)cc(F)cc32)cc1F [Example 16, N-{4-[({[(4R)-6,8-difluoro-2,2-bis(fluoromethyl)-3,4-dihydro-2H-chromen-4-yl]carbamoyl}amino)methyl]-2-fluorophenyl}methanesulfonamide]
69%	3030 nM	CS(=O)(=O)Nc1ccc(CNC(=O)N[C@@H]2CC3(CCC3)Oc3ccc(F)cc32)cc1F [Example 17, N-{2-fluoro-4-[({[(4R)-6-fluoro-3,4-dihydrospiro[chromene-2,1′-cyclobutan]-4-yl]carbamoyl}amino)methyl]phenyl}methanesulfonamide]
56%	2150 nM	CCC1(CC)C[C@@H](NC(=O)NCc2ccc(NS(C)(=O)=O)c(F)c2)c2cc(F)ccc2O1 [Example 18, N-{4-[({[(4R)-2,2-diethyl-6-fluoro-3,4-dihydro-2H-chromen-4-yl]carbamoyl}amino)methyl]-2-fluorophenyl}methanesulfonamide]
